The structures appear in SMILES notation. Where two headings read alike, the source gives them in different places.

Data set [1] has as its system green peach aphids (Myzus persicae). The data set is described as follows: Myzus persicae - oral test. It is filed as in vivo. Particulars: 120 h, application rate 4 ppm, after 5 days, oral uptake from microtitre plate, read-out: efficacy in % (aphids killed). The procedure:
Myzus persicae—Oral Test Solvent: 100 parts by weight of acetone To produce a suitable active ingredient formulation, 1 part by weight of active ingredient is dissolved with the stated parts by weight of solvent and made up to the desired concentration with water. 50 μl of the active ingredient formulation are transferred into microtitre plates and made up to a final volume of 200 μl with 150 μl of IPL41 insect medium (33%+15% sugar). Subsequently, the plates are sealed with parafilm, which a mixed population of green peach aphids (Myzus persicae) within a second microtitre plate is able to puncture and imbibe the solution. After 5 days, the efficacy in % is determined. 100% means that all the aphids have been killed; 0% means that no aphids have been killed.

The subject of data set [2] is green peach aphid (Myzus persicae). Briefly: Myzus persicae - spray test. It counts as in vivo. Particulars: foliar, application rate 500 g/ha, after 5-6 days, sprayed Chinese cabbage leaf discs, read-out: efficacy in % (aphids killed). The method, then:
Myzus persicae—Spray Test Solvent: 78 parts by weight of acetone • • 1.5 parts by weight of dimethylformamide Emulsifier: alkylaryl polyglycol ether To produce a suitable active ingredient formulation, 1 part by weight of active ingredient is dissolved with the specified parts by weight of solvent and made up to the desired concentration with water containing an emulsifier concentration of 1000 ppm. To produce further test concentrations, the formulation is diluted with emulsifier-containing water. Discs of Chinese cabbage leaves (Brassica pekinensis) infested by all stages of the green peach aphid (Myzus persicae) are sprayed with an active ingredient formulation of the desired concentration. After 5-6 days, the efficacy in % is determined. 100% means that all the aphids have been killed; 0% means that no aphids have been killed.

The nature of data set [3]: log P determination by HPLC on reversed-phase columns (OECD Guideline 117). It counts as physicochemical. Particulars: reversed-phase (C18) HPLC column. The procedure:
The log P values were determined in accordance with OECD Guideline 117 (EC Directive 92/69/EEC) by HPLC (high-performance liquid chromatography) using reversed-phase (RP) columns (C18), by the following methods: [a] The LC-MS determination in the acidic range is carried out at pH 2.7 with 0.1% aqueous formic acid and acetonitrile (contains 0.1% formic acid) as eluents; linear gradient from 10% acetonitrile to 95% acetonitrile. [b] LC-MS determination in the neutral range is carried out at pH 7.8 with 0.001 molar aqueous ammonium hydrogencarbonate solution and acetonitrile as eluents; linear gradient from 10% acetonitrile to 95% acetonitrile. Calibration is effected using unbranched alkan-2-ones (having 3 to 16 carbon atoms) with known log P values (log P values determined on the basis of the retention times by linear interpolation between two successive alkanones).

The test system of data set [4] is larvae of the mustard beetle (Phaedon cochleariae). Briefly: Phaedon cochleariae - spray test. It counts as in vivo. Particulars: application rate 500 g/ha; after 7 days; sprayed Chinese cabbage leaf discs. The method, then:
Phaedon cochleariae—Spray Test
Solvent: 78.0 parts by weight of acetone • • 1.5 parts by weight of dimethylformamide
Emulsifier: alkylaryl polyglycol ether
To produce a suitable active ingredient formulation, 1 part by weight of active ingredient is dissolved with the specified parts by weight of solvent and made up to the desired concentration with water containing an emulsifier concentration of 1000 ppm. To produce further test concentrations, the formulation is diluted with emulsifier-containing water.
Discs of Chinese cabbage leaves (Brassica pekinensis) are sprayed with an active compound formulation of the desired concentration and, after drying, populated with larvae of the mustard beetle (Phaedon cochleariae).
After 7 days, the efficacy in % is determined. 100% means that all the beetle larvae have been killed; 0% means that no beetle larvae have been killed.

In data set [5] the test system is southern root-knot nematode (Meloidogyne incognita). Briefly: Meloidogyne incognita test. Particulars: application rate 20 ppm; after 14 days; lettuce in sand; 100% = no galls. It counts as in vivo. The procedure: Meloidogyne incognita Test Solvent: 125.0 parts by weight of acetone To produce a suitable active ingredient formulation, 1 part by weight of active ingredient is mixed with the stated amount of solvent and the concentrate is diluted to the desired concentration with water. Vessels are filled with sand, active ingredient solution, an egg/larvae suspension of the southern root-knot nematode (Meloidogyne incognita) and lettuce seeds. The lettuce seeds germinate and the plants develop. The galls develop on the roots. After 14 days, the nematicidal efficacy in % is determined by the formation of galls. 100% means that no galls were found; 0% means that the number of galls on the treated plants corresponds to the untreated control.

Setting [6] is: acidic range, pH 2.7, 0.1% aqueous formic acid/acetonitrile, read-out: log P(HCOOH).
Setting [7] is: neutral range, pH 7.8, 0.001 molar aqueous ammonium hydrogencarbonate/acetonitrile, read-out: log P(neutral).

On to `O=c1cnn(-c2ccc3nn(-c4cccnc4)cc3c2)c(=O)n1Cc1ccccc1` [Example 27], for which the pest or weed control at 4 ppm in data set [1] is 100%. Also, in data set [2], the pest or weed control at 500 g/ha stood at 90%.

For `Cn1c(=O)n(C2CC2)c(=O)n1-c1ccc2nn(-c3cccnc3)cc2c1` [Example 3], in data set [1], the pest or weed control at 4 ppm amounted to 100%. The pest or weed control at 500 g/ha in data set [2] turned out to be 100%.

For the compound `CCn1c(=O)n(C)n(-c2ccc3nn(-c4cccnc4)cc3c2)c1=O` [Example 5], in data set [1], the pest or weed control at 4 ppm is 100%. Further, the pest or weed control at 500 g/ha in data set [2] stood at 90%.

With `Cn1c(=O)n(Cc2ccc(Cl)cc2)c(=O)n1-c1ccc2nn(-c3cccnc3)cc2c1` [Example 15], the pest or weed control at 4 ppm in data set [1] turned out to be 100%.

In the case of `Cn1c(=O)n(C2CC2)c(=O)n1-c1cnc2nn(-c3cccnc3)cc2c1` [Example 20], the pest or weed control at 4 ppm in data set [1] came to 100%. Moreover, the pest or weed control at 500 g/ha in data set [2] came to 90%.

In the case of `O=c1cnn(-c2ccc3nn(-c4cccnc4)cc3c2)c(=O)n1-c1ccccc1` [Example 28], the pest or weed control at 4 ppm in data set [1] stood at 90%.

Regarding `CCn1c(=O)n(C)n(-c2cnc3nn(-c4cccnc4)cc3c2)c1=O` [Example 18], the pest or weed control at 4 ppm in data set [1] is 100%. In data set [2], the pest or weed control at 500 g/ha amounted to 100%.

In the case of `Cn1c(=O)n(CC[S+](C)[O-])c(=O)n1-c1ccc2nn(-c3cccnc3)cc2c1` (stereo not shown) [Example 11], the pest or weed control at 4 ppm in data set [1] came out at 100%. Besides, in data set [2], the pest or weed control at 500 g/ha was 90%.

As to `Cn1c(=O)n(CC(F)F)c(=O)n1-c1ccc2nn(-c3cccnc3)cc2c1` [Example 14], the pest or weed control at 4 ppm in data set [1] was determined as 100%. Besides, in data set [2], the pest or weed control at 500 g/ha worked out at 90%.

Regarding `Cn1c(=O)n(CC2CC2)c(=O)n1-c1cnc2nn(-c3cccnc3)cc2c1` [Example 21], the pest or weed control at 4 ppm in data set [1] turned out to be 100%. Moreover, the pest or weed control at 500 g/ha in data set [2] came out at 100%.

In the case of `Cn1c(=O)cnn(-c2ccc3nn(-c4cccnc4)cc3c2)c1=O` [Example 2, 4-Methyl-2-[2-(pyridin-3-yl)-2H-indazol-5-yl]-1,2,4-triazine-3,5(2H,4H)-dione], in data set [1], the pest or weed control at 4 ppm came to 100%. Moreover, the pest or weed control at 500 g/ha in data set [2] is 90%. Besides, the results for the chromatographic logP in data set [3] (setting [6]) and in data set [3] (setting [7]) were 1.38 and 1.47, respectively.

With `Cn1c(=O)n(-c2ccccc2)c(=O)n1-c1ccc2nn(-c3cccnc3)cc2c1` [Example 4], the pest or weed control at 4 ppm in data set [1] amounted to 100%. In addition, the “efficacy in % (beetle larvae killed)” value in data set [4] was found to be 83%. Moreover, the pest or weed control at 500 g/ha in data set [2] is 90%.

Take `Cn1c(=O)n(Cc2ccc(Cl)nc2)c(=O)n1-c1ccc2nn(-c3cccnc3)cc2c1` [Example 23]: the pest or weed control at 4 ppm in data set [1] was 100%. The pest or weed control at 500 g/ha in data set [2] stood at 100%.

For `O=c1cnn(-c2ccc3nn(-c4cccnc4)cc3c2)c(=O)n1CC(F)(F)F` [Example 24], the pest or weed control at 4 ppm in data set [1] worked out at 100%.

With `Cn1c(=O)n(Cc2cccc(Cl)c2)c(=O)n1-c1ccc2nn(-c3cccnc3)cc2c1` [Example 17], in data set [1], the pest or weed control at 4 ppm amounted to 100%.

Take `Cn1c(=O)n(CC2CC2)c(=O)n1-c1ccc2nn(-c3cccnc3)cc2c1` [Example 7]: in data set [1], the pest or weed control at 4 ppm came out at 100%. Moreover, the pest or weed control at 500 g/ha in data set [2] came out at 90%.

Take `CC(C)n1c(=O)n(C)n(-c2ccc3nn(-c4cccnc4)cc3c2)c1=O` [Example 13]: in data set [1], the pest or weed control at 4 ppm is 90%.

Turning to `Cn1c(=O)n(CC(F)(F)F)c(=O)n1-c1ccc2nn(-c3cccnc3)cc2c1` [Example 9], the pest or weed control at 4 ppm in data set [1] was determined as 100%. In addition, the pest or weed control at 500 g/ha in data set [2] was determined as 90%.

Turning to `COCCn1c(=O)n(C)n(-c2ccc3nn(-c4cccnc4)cc3c2)c1=O` [Example 12], the pest or weed control at 4 ppm in data set [1] was 100%. The pest or weed control at 500 g/ha in data set [2] came out at 90%.

`CSCCn1c(=O)n(C)n(-c2ccc3nn(-c4cccnc4)cc3c2)c1=O` [Example 6]: the pest or weed control at 4 ppm in data set [1] was found to be 90%. For the same compound, in data set [2], the pest or weed control at 500 g/ha stood at 100%.

Consider `CCn1c(=O)cnn(-c2ccc3nn(-c4cccnc4)cc3c2)c1=O` [Example 25], for which the pest or weed control at 4 ppm in data set [1] is 100%. The “efficacy in % (beetle larvae killed)” value in data set [4] is reported as 83%. The pest or weed control at 500 g/ha in data set [2] was 100%.

Turning to `O=c1cnn(-c2ccc3nn(-c4cccnc4)cc3c2)c(=O)n1CC1CC1` [Example 26], the pest or weed control at 4 ppm in data set [1] amounted to 100%. In data set [2], the pest or weed control at 500 g/ha worked out at 90%.

Turning to `Cn1c(=O)n(Cc2ccccc2Cl)c(=O)n1-c1ccc2nn(-c3cccnc3)cc2c1` [Example 16], the pest or weed control at 4 ppm in data set [1] was 90%.

Consider `Cn1c(=O)n(Cc2ccccc2)c(=O)n1-c1ccc2nn(-c3cccnc3)cc2c1` [Example 8], for which, in data set [1], the pest or weed control at 4 ppm worked out at 100%. In addition, the pest or weed control at 500 g/ha in data set [2] was found to be 100%.

For `Cn1c(=O)n(C)n(-c2cnc3nn(-c4cccnc4)cc3c2)c1=O` [Example 19], the pest or weed control at 4 ppm in data set [1] was determined as 90%. Besides, the pest or weed control at 500 g/ha in data set [2] came to 100%.

As to `Cn1c(=O)n(CC(F)(F)F)n(-c2ccc3nn(-c4cccnc4)cc3c2)c1=O` [Example 10], the pest or weed control at 4 ppm in data set [1] turned out to be 100%.

As for `Cn1c(=O)n(C)n(-c2ccc3nn(-c4cccnc4)cc3c2)c1=O` [Example 1, 1,4-Dimethyl-2-[2-(pyridin-3-yl)-2H-indazol-5-yl]-1,2,4-triazolidine-3,5-dione], in data set [1], the pest or weed control at 4 ppm worked out at 100%. In addition, the pest or weed control at 500 g/ha in data set [2] came to 90%. The “nematicidal efficacy in % (formation of galls)” value in data set [5] stood at 90%. Moreover, the chromatographic logP in data set [3] (setting [6]) came out at 1.24; in data set [3] (setting [7]), 1.31.

On to `CC(C)n1c(=O)n(C)n(-c2cnc3nn(-c4cccnc4)cc3c2)c1=O` [Example 22], for which, in data set [1], the pest or weed control at 4 ppm is 100%.
